Counter-ions that a name gives are not always drawn.
Key:
[1] = biological target: HDAC1 (Homo sapiens (Human), UniProt Q13547); experiment: In vitro enzyme inhibition assay - HDAC (HDAC-Glo I/II), HDAC1; assay type: biochemical; conditions: read-out: HDAC IC50 (nM) HDAC 1
Method in brief: (§1)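 Eight compound concentrations (5-fold steps from a 1 mM DMSO stock) tested against pan-HDAC, HDAC1 and HDAC8 with HDAC-Glo I/II reagents, luminescence read-out. Percent inhibition normalized to no-inhibitor and no-enzyme wells; IC50 derived by four-parameter logistic fit.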

[2] = system: DU145 cells; experiment: In vitro cell inhibition assay - DU145 cell proliferation (CellTiter-Glo); assay type: cell-based; conditions: Homo sapiens, DU-145, Du145 prostate cancer cell proliferation
Method in brief: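 DU145 cells were seeded at 1×10^3 per well, exposed next day to an 8-point, 5-fold compound dilution series in RPMI-640 with 10% FBS, and incubated 6 days at 37° C. Viable cells were measured by CellTiter-Glo luminescence, and IC50 was fitted from inhibition rates relative to no-inhibitor and no-cell controls.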

[3] = system: NCI-H1417 cells; experiment: In vitro cell inhibition assay - H1417 cell proliferation (CellTiter-Glo); assay type: cell-based; conditions: Homo sapiens, NCI-H1417, H1417 small cell lung cancer cell proliferation
Method in brief: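 Cells exposed to 8 compound concentrations (5-fold dilutions) in BEGM with 10% FBS for 7 days at 37° C., 5% CO2. Viable cells measured by CellTiter-Glo luminescence; inhibition versus no-inhibitor and no-cell controls, IC50 fitted.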

[4] = biological target: pan-HDAC; experiment: In vitro enzyme inhibition assay - HDAC (HDAC-Glo I/II), pan-HDAC; assay type: biochemical
Method in brief: as §1

[5] = system: NCI-H69 cells; experiment: In vitro cell inhibition assay - NCI-H69 cell proliferation (CellTiter-Glo); assay type: cell-based; conditions: Homo sapiens, NCI-H69, H69 small cell lung cancer cell proliferation
Method in brief: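 Over 7 days at 37° C. and 5% CO2, cells grew in RPMI-640 supplemented with 20% FBS in the presence of eight 5-fold-spaced compound concentrations.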

[6] = system: NCI-H526 cells; experiment: In vitro cell inhibition assay - NCI-H526 cell proliferation (CellTiter-Glo); assay type: cell-based; conditions: Homo sapiens, NCI-H526, 120 h, H526 small cell lung cancer cell proliferation, 5 days
Method in brief: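 NCI-H526 cells plated at 1×10^3 per well overnight, then treated with 8 concentrations (5-fold dilutions) in RPMI-640 with 10% FBS for 5 days at 37° C., 5% CO2. Viable cells quantified by CellTiter-Glo luminescence; IC50 fitted from inhibition rates relative to no-inhibitor and no-cell controls.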

[7] = biological target: LSD1 (Homo sapiens (Human), UniProt O60341); experiment: In vitro enzyme inhibition assay - LSD1 (HTRF); assay type: biochemical
[8] = biological target: HDAC8 (Homo sapiens (Human), UniProt Q9BY41); experiment: In vitro enzyme inhibition assay - HDAC (HDAC-Glo I/II), HDAC8; assay type: biochemical; conditions: read-out: HDAC IC50 (nM) HDAC 8
Method in brief: as §1

Sequence of HDAC1 (Q13547 whole entry): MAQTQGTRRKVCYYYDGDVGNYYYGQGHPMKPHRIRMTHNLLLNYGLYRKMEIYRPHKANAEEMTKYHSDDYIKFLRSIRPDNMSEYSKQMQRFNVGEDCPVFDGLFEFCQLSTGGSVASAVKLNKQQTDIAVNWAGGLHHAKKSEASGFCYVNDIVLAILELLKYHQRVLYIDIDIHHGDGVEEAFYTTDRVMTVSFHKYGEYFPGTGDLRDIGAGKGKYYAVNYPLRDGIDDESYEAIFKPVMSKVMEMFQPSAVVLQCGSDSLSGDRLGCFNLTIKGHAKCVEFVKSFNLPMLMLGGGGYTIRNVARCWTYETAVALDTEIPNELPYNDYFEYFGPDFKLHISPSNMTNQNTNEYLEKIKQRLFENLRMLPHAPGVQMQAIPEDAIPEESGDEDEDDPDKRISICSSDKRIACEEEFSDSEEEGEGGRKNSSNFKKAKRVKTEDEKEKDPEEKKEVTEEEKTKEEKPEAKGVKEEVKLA
Sequence of HDAC8 (Q9BY41 whole entry): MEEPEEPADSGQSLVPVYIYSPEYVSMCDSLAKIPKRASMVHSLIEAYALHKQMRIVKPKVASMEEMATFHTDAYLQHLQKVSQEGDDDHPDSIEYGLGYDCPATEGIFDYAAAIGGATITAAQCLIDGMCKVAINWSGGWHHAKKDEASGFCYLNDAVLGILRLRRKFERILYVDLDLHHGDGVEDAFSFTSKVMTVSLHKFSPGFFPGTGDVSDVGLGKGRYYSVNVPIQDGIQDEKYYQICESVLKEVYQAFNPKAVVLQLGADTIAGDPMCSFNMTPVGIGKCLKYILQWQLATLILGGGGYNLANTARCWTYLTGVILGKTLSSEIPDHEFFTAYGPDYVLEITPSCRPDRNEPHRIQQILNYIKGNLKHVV

| Compound | IC50 [1] | IC50 [2] | IC50 [3] | IC50 [4] | IC50 [5] | IC50 [6] | IC50 [7] | IC50 [8] |
| --- | --- | --- | --- | --- | --- | --- | --- | --- |
| Cc1ccc(-c2cnc(N3CCC(NCc4ccc(/C=C/C(=O)NO)cc4)CC3)c(C#N)c2-c2ccc(C#N)c(F)c2)cc1O [Example 102, (E)-3-(4-(((1-(3-Cyano-4-(4-cyano-3-fluorophenyl)-5-(3-hydroxy-4-methylphenyl)pyridin-2-yl)piperidin-4-yl)amino)methyl)phenyl)-N-hydroxyacrylamide formate] | 16.3 nM | 7.43 nM | 3.1 nM | 45.2 nM | 0.36 nM | 4.27 nM | 1.31 nM | 178 nM |
| N#Cc1ccc(-c2c(-c3ccc(CO)c(O)c3)cnc(N3CCC(NCc4ccc(/C=C/C(=O)NO)cc4)CC3)c2C#N)cc1F [Example 131, (E)-3-(4-(((1-(3-Cyano-4-(4-cyano-3-fluorophenyl)-5-(3-hydroxy-4-(hydroxymethyl)phenyl)pyridin-2-yl)piperidin-4-yl)amino)methyl)phenyl)-N-hydroxyacrylamide formate] | 0.22 nM | 7.09 nM | 0.62 nM | 1.57 nM | 2.59 nM | 3.54 nM | 1.31 nM | 46.6 nM |
| COc1ccc(-c2cnc(N3CCC(NCc4ccc(/C=C/C(=O)NO)cc4)CC3)c(C#N)c2-c2ccc(C#N)c(F)c2)cc1 [Example 52, (E)-3-(4-(((1-(3-Cyano-4-(4-cyano-3-fluorophenyl)-5-(4-methoxyphenyl)pyridin-2-yl)piperidin-4-yl)amino)methyl)phenyl)-N-hydroxyacrylamide hydrochloride] | 15.9 nM | 216 nM | 81.6 nM | 4.22 nM | 71 nM | 111 nM | 47.8 nM | 140 nM |
| N#Cc1ccc(-c2cc(OCCCCCCC(=O)NO)cc(N3CCC(N)CC3)n2)cc1F [Example 31, 7-((2-(4-aminopiperidin-1-yl)-6-(4-cyano-3-fluorophenyl)pyridin-4-yl)oxy)-N-hydroxyheptanamide hydrochloride] | 1.78 nM | 93.6 nM | 51 nM | 0.25 nM | 410 nM | 37.4 nM | 311 nM | 263 nM |
| COc1ccc(-c2cnc(N3CCC(NCc4ccc(/C=C/C(=O)NO)cc4)CC3)c(C#N)c2-c2ccc(C#N)cc2F)cc1O [Example 134, (E)-3-(4-(((1-(3-Cyano-4-(4-cyano-2-fluorophenyl)-5-(3-hydroxy-4-methoxyphenyl)pyridin-2-yl)piperidin-4-yl)amino)methyl)phenyl)-N-hydroxyacrylamide formate] | 0.32 nM | 20.3 nM | 5.1 nM | 3.55 nM | 8.37 nM | 13.8 nM | 13.6 nM | 46 nM |
| N#Cc1ccc(-c2c(-c3ccc(C4CC4)c(O)c3)cnc(N3CCC(NCc4ccc(/C=C/C(=O)NO)cc4)CC3)c2C#N)cc1F [Example 111, (E)-3-(4-((1-(3-Cyano-4-(4-cyano-3-fluorophenyl)-5-(4-cyclopropyl-3-hydroxyphenyl)pyridin-2-yl)piperidin-4-yl)amino)methyl) phenyl)-N-hydroxyacrylamide formate] | 83.1 nM | 14.2 nM | 1.98 nM | 65.3 nM | 3.41 nM | 16.2 nM | 1.56 nM | 358 nM |
| COc1ccc(-c2cnc(N3CCC(NCc4cnc(/C=C/C(=O)NO)s4)CC3)c(C#N)c2-c2ccc(C#N)c(F)c2)cc1O [Example 112, (E)-3-(5-((1-(3-Cyano-4-(4-cyano-3-fluorophenyl)-5-(3-hydroxy-4-methoxyphenyl)pyridin-2-yl)piperidin-4-yl)amino)methyl) thiazol-2-yl)-N-hydroxyacrylamide formate] | 26.3 nM | 86.8 nM | 4.14 nM | 26.9 nM | 32.7 nM | 63.5 nM | 2.66 nM | 81.4 nM |
| N#Cc1ccc(-c2cnc(N3CCC(NCc4ccc(/C=C/C(=O)NO)cc4)CC3)c(C#N)c2-c2ccc(C#N)c(F)c2)cc1O [Example 113, (E)-3-(4-(((1-(3-Cyano-4-(4-cyano-3-fluorophenyl)-5-(4-cyano-3-hydroxyphenyl)pyridin-2-yl)piperidin-4-yl)amino)methyl)phenyl)-N-hydroxyacrylamide formate] | 17.3 nM | 130 nM | 29.8 nM | 25 nM | 76.3 nM | 80 nM | 2 nM | 72.7 nM |
| COc1cc(F)c(-c2cnc(N3CCC(NCc4ccc(/C=C/C(=O)NO)cc4)CC3)c(C#N)c2-c2ccc(C#N)c(F)c2)cc1O [Example 130, (E)-3-(4-((1-(3-Cyano-4-(4-cyano-3-fluorophenyl)-5-(2-fluoro-5-hydroxy-4-methoxyphenyl)pyridin-2-yl)piperidin-4-yl)amino)methyl) phenyl)-N-hydroxyacrylamide formate] | 0.77 nM | 25 nM | 1.09 nM | 6.13 nM | 25.2 nM | 22.8 nM | 1.89 nM | 220 nM |
| COc1ccc(-c2c(C)nc(N3CCC(NCc4ccc(/C=C/C(=O)NO)cc4)CC3)c(C#N)c2-c2ccc(C#N)c(F)c2)cc1O [Example 50, (E)-3-(4-(((1-(3-Cyano-4-(4-cyano-3-fluorophenyl)-5-(3-hydroxy-4-methoxyphenyl)-6-methylpyridin-2-yl)piperidin-4-yl)amino)methyl)phenyl)-N-hydroxyacrylamide formate] | 118 nM | 369 nM | 5.58 nM | 70.7 nM | 163 nM | 216 nM | 4.33 nM | 170 nM |
| CC(C)(O)COc1ccc(-c2cnc(N3CCC(NCc4ccc(/C=C/C(=O)NO)cc4)CC3)c(C#N)c2-c2ccc(C#N)c(F)c2)cc1O [Example 143, (E)-3-(4-(((1-(3-Cyano-4-(4-cyano-3-fluorophenyl)-5-(3-hydroxy-4-(2-hydroxy-2-methylpropoxy)phenyl)pyridin-2-yl)piperidin-4-yl)amino)methyl)phenyl)-N-hydroxyacrylamide formate] | 1.25 nM | 23.7 nM | 1.03 nM | 1.7 nM | 16.8 nM | 18.1 nM | 0.1 nM | 111 nM |
| Cc1noc2cc(-c3c(-c4ccc(C#N)c(F)c4)nc(N4CCC(NCc5ccc(/C=C/C(=O)NO)cc5)CC4)n4ccnc34)c(F)cc12 [Example 36, (E)-3-(4-(((1-(7-(4-Cyano-3-fluorophenyl)-8-(5-fluoro-3-methyl-benzo[d]isoxazol-6-yl)imidazo[1,2-c]pyrimidin-5-yl)piperidin-4-yl)amino)methyl)phenyl)-N-hydroxyacrylamide formate] | 118 nM | 1010 nM | 6.58 nM | 75.1 nM | 109 nM | 665 nM | 1.18 nM | 97.7 nM |

Source: patent publication US20250304549A1, “HYDROXYAMIDE DERIVATIVE AND USE THEREOF” (SICHUAN HUIYU PHARMACEUTICAL CO., LTD., priority 2022, published 2025)
